What was measured:
liver Kupffer cells = experiment: Influence on activation of liver Kupffer cells in primary culture system; assay type: cell-based; conditions: rat primary culture, 7 days
Experimental: Wistar rat (bred under SPF, male, 15-week-old) was subjected to laparotomy under pentobarbital anesthesia, a catheter was inserted into the portal vein, and perfusion was performed successively with a washing solution for hemorrhage, a 0.06% pronase solution (manufactured by Carbiochem), and a 0.03% collagenase (manufactured by Wako Pure Chemical Industries, Ltd.) solution. Then, the liver was isolated and incubated in a liver Kupffer cell separation buffer containing 0.057% pronase and 0.057% collagenase, and supplemented with 2 mg/mL DNaseI (1 mL, manufactured by Roche Diagnostics) in a warm bath at 36° C. for 30 min. During this period, the pH of the lysate was maintained at 7.2-7.4 with 1N NaOH. Then, the hepatic tissue digestive product was filtered through a mesh, a liver Kupffer cell separation buffer was added to the obtained filtrate to the total amount of 150 mL. The mixture was dispensed to three 50-mL polypropylene tubes, and centrifuged at 4° C., 2000 rpm for 8 min. […]
On the other hand, respective cells were washed with phosphate buffer (PBS: phosphate buffered saline) 7 days later, and fixed with 4% para-formaldehyde at room temperature for 10 min. […] Then, the cells were washed with PBST, and the α smooth muscle actin (αSMA) expression level was observed under a fluorescence microscope.

ARPE-19 cells = experiment: Evaluation of TGF-β-induced epithelial-mesenchymal transition (EMT) inhibitory activity; assay type: cell-based; conditions: human TGF-β2 10 ng/mL and human TNF 10 ng/mL, 2 days, Giemsa stain, FIG. 1
Experimental: Human retinal pigment epithelial cells (ARPE-19 cells) were seeded in a 96 well plate at a concentration of 1.2×10^4 cells/well, and cultured overnight (5% CO2, 37° C.) in DMEM/F12 medium containing 10% fetal bovine serum, penicillin (100 U/mL), streptomycin (100 μg/mL) and Hepes (10 mM). The next day, the medium was changed to a serum-free medium, and a test compound was added. After 1 hr, the cells were stimulated with human TGF-β2 (10 ng/mL) and human TNF (10 ng/mL). After culture for 2 days, the cells were stained with Giemsa, and the influence of the compound on the formation of cell aggregates was evaluated.

[1] = test system: mouse bile duct ligation induced hepatic fibrosis model; experiment: Anti-fibrillization action in mouse bile duct ligation induced hepatic fibrosis model (BDL model); assay type: in vivo; conditions: ICR mice, tail vein once a day for 14 days, qPCR vs GAPDH, FIG. 4
Experimental: Hepatopathy caused by accumulation of bile in the liver and therewith associated liver fibrillization are induced by ligating the bile duct of mouse. The effect of the test compound on the hepatopathy and liver fibrillization associated therewith was evaluated. […]
mRNA was extracted from the hepatic tissue preserved in RNALater by using an RNA purification kit RNeasy Micro Kit (manufactured by QIAGEN), and the RNA concentration was determined using a spectrophotometer (Nano Drop). […] Using SYBR® Premix EX Taq™ (manufactured by TAKARA), a reaction mixture was prepared according to the package insert, qPCR reaction was performed using respective primers for αSMA and the internal standard GAPDH (manufactured by Invitrogen), and the mRNA expression level was quantified.

## CN(C)c1ccc(NS(=O)(=O)c2cccc(S(=O)(=O)NCC3CCN(C(=O)OC(C)(C)C)CC3)c2)cc1-c1ccco1 [Y244, 4-{[3-(4-dimethylamino-3-furan-2-yl-phenylsulfamoyl)benzenesulfonylamino]methyl}piperidine-1-carboxylic acid tert-butyl ester]
Liver Kupffer cells; Cy3-labeled anti-αSMA antibody, fluorescence microscope, FIG. 3
  expression of α smooth muscle actin associated with the activation of liver Kupffer cells: remarkably suppressed
Liver Kupffer cells; bright field, FIG. 2
  cell morphology change caused by the activation of liver Kupffer cells: suppressed
ARPE-19 cells
  EMT induced by TGF-β (formation of cell aggregates): remarkably suppressed
[1]
  mRNA expression level of α smooth muscle actin in the liver tissue: significantly suppressed
